pIC50, pKd: −log10 of the molar value.

The nature of test [1]: Dissociation binding constant was determined for apoNCS binding site using fluorescence quenching titration assay.
In test [2] the test system is K562. The test can be described thus: Cytotoxicity against human leukemia cell line K562. The test is classed as functional, cell-based.
Test [3] can be described thus: Dissociation binding constant was determined for apoNCS binding site using fluorescence quenching titration assay; Insufficient change in fluorescence.

`COc1cc(C)c2ccc(O)c(C(=O)OCCOC(=O)C(N)Cc3ccc(N(CCCl)CCCl)cc3)c2c1` (configuration not stated): in test [1], the pKd – broadly, the negative decadic logarithm of the Kd, by convention in mol/L – was 4.33. For the same molecule, the pIC50 (usually −log10 of the IC50, conventionally taken in molar units) in test [2] was 5.15.

In test [1], `COc1cc(C)c2ccc(O)c(C(=O)OCCOC(=O)CCCc3ccc(N(CCCl)CCCl)cc3)c2c1` showed a pKd of under 3.00. This molecule had a pIC50 in test [2] of 3.70.

As for `O=C(O)CCCc1ccc(N(CCCl)CCCl)cc1` [CHLORAMBUCIL], the pIC50 in test [2] was 4.02.

With `N[C@@H](Cc1ccc(N(CCCl)CCCl)cc1)C(=O)O` [MELPHALAN], the Kd result in test [3] is “Insufficient change in fluorescence”. The molecule also gave a pIC50 in test [2] of 4.52.

Source of the values: ChEMBL document CHEMBL1137988, “Design and synthesis of a nitrogen mustard derivative stabilized by apo-neocarzinostatin” (J Med Chem, 2004).
